We go through six compounds from patent US12496308B2.

Structures are written as SMILES. Counter-ions that a name gives are not always drawn.

Series [1] is described as follows: Stability and pH of aqueous solutions. Particulars: for longer term stability of solutions: solutions at RT. Type of series: physicochemical. The method, then:
Water is added and the mixture is stirred or sonicated. Yields 10 mg/ml to 20 mg/ml solutions stable for at least 24 hrs.

Series [2] deals with middle cerebral artery occlusion (MCAo) model. Nature of the series: MCAo stroke model - cerebral edema (hemispheric brain volume by MRI).
Description: To mimic this injury in mice, an intraluminal monofilament model of middle cerebral artery occlusion (MCAo) is used. Occlusion is achieved by inserting a surgical filament into the external carotid artery (ECA) and threading it forward into the internal carotid artery (ICA) until the tip blocks the origin of the MCA. […] This technique is used to study a temporary occlusion in which the MCA is blocked for one hour. The filament is then removed allowing reperfusion to occur for 24 hours before the animal's brain is imaged using T2-weighted scans in a 9.4T Bruker MRI scanner at the Case Center for Imaging Research (FIG. 7). […] Solid line highlights the region of infarct in the MCAo brain.
Cerebral Edema—Mice are given saline or treated with 2-{[3,5-bis(trifluoromethyl)phenyl]carbamoyl}-4-chlorophenyl phosphate disodium salt (Compound 5) by multi-dosing at 5 mg/kg i.p. every three hours (n=8 per treatment). […] Ipsilateral and contralateral hemispheric volume is measured from the T2-weighted MR images of mice 24 hours post-icus. Relative change in hemispheric volume is calculated as a percent of the difference between ipsilateral brain volume (Vi) and contralateral brain volume (Vc) relative to the contralateral brain volume (Percent Change in Hemispheric Brain Volume=((Vi−Vc)/Vc)×100%.
Series [3] shares this test system. Nature of the series: MCAo stroke model - neurological outcome. The note with it: mouse, in vivo.
Description: To mimic this injury in mice, an intraluminal monofilament model of middle cerebral artery occlusion (MCAo) is used. Occlusion is achieved by inserting a surgical filament into the external carotid artery (ECA) and threading it forward into the internal carotid artery (ICA) until the tip blocks the origin of the MCA. […] This technique is used to study a temporary occlusion in which the MCA is blocked for one hour. The filament is then removed allowing reperfusion to occur for 24 hours before the animal's brain is imaged using T2-weighted scans in a 9.4T Bruker MRI scanner at the Case Center for Imaging Research (FIG. 7).
Neurological Outcome—In the same experiment as above, animals are scored for neurological outcome on a simple 5 point scale described in Manley, G. T. et al., Aquaporin-4 Deletion in Mice Reduces Brain Edema After Acute Water Intoxication and Ischemic Stroke, Nature Medicine, 6, 159-163 (2000).
The nature of series [4]: Solid state stability (hydrolysis to the phenol) at room temperature.
Series [5] is described as follows: Bioconversion of prodrug salt in mouse plasma in vitro. In kind it is in vitro ADME. The note with it: 20° C.
Series [6] deals with mouse water toxicity model for cerebral edema. Put plainly: Mouse water toxicity model - brain volume by MRI. Type of series: in vivo.
Description: Mouse Water Toxicity Model—Brain Volume by Magnetic Resonance Imaging (MRI): MRI is used to measure changes in brain volume in response to water shock, using the water toxicity model. As described for the survival and brain water content studies above, mice are injected, IP, with a water bolus alone or water bolus and test compound at 0.76 mg/kg, and changes in brain volume as detected by MRI are monitored. […] High resolution T2-weighted sagittal scans (resolution=0.1 mm×0.1 mm×0.7 mm) of the mouse head are obtained prior to water injection, 5.67 min post water injection, and then every 5.2 minutes until the animal expires from the water loading. Each scan contains twenty-five 0.7 mm contiguous imaging slices of which 14-15 slices contain a portion of the brain. The cross sectional area of the brain in each imaging slice is measured by manual region-of-interest selection using ImageJ. Brain volumes are then calculated for each scan by summing the individual cross sectional brain areas and multiplying by the slice thickness (0.7 mm).
Series [7] has as its system mouse water toxicity model. Put plainly: Mouse water toxicity model - survival curves. The note with it: 0.76 mg/kg, versus placebo.
Description: Mouse Water Toxicity Model—Survival Curves: The in vivo efficacies of the compounds are tested using the mouse water toxicity model, where a mouse is injected with water at 20% of its body weight. […] The resulting euvolemic hyponatremia rapidly leads to CE, making this a practical model to test an inhibitor of the CNS aquaporin, AQP4b.
The ability of mice to survive H2O toxicity is determined in three experiments using 10-12 mice each (16-19 weak old male/female). Deionized water is prepared for injection with either 0.39 mg/kg phenylbenzamide (placebo) or 0.76 mg/kg with test compound.

On to `O=C(Nc1cc(C(F)(F)F)cc(C(F)(F)F)c1)c1cc(Cl)ccc1OP(=O)([O-])[O-].[Na+].[Na+]` [Compound 5], for which the “longer term stability of solutions” value in series [1] is given as “about 1 % per day”. In addition, the “relative change in ipsilateral brain volume” value in series [2] (24 hours after MCAo, 5 mg/kg i.p. every three hours, n=8, ±SEM) is reported as 4.2±1.7%. Also, in series [2] (versus saline controls), the “reduction in brain swelling after MCAo” value is listed as 3.2 fold. For the same compound, the “progression to severe paralysis or death” value in series [3] is “did not progress into a state of severe paralysis or death”. Further, the “hydrolysis in the solid state” value in series [4] was “about 10 % per day”.

For `O=C(Nc1cc(C(F)(F)F)cc(C(F)(F)F)c1)c1cc(Cl)ccc1OP(=O)([O-])O.[Na+]` [mono sodium salt], the “longer term stability of solutions” value in series [1] was “about 1 % per day”. The “hydrolysis in the solid state” value in series [4] is listed as “about 10 % per day”.

Consider `O=C(Nc1cc(C(F)(F)F)cc(C(F)(F)F)c1)c1cc(Cl)ccc1OP(=O)(O)O` [bis ethanolamine salt], for which the “Final pH of solutions” value in series [1] (in water) is on record as “about 7.5”. For the same compound, in series [1], the “longer term stability of solutions” value was “about 1 % per day”. The “hydrolysis in the solid state” value in series [4] is reported as “about 10 % per day”. Further, the “time sufficient to render prodrug salt undetectable” value in series [5] is “Less than 5 minutes”.

With `O=C(Nc1cc(C(F)(F)F)cc(C(F)(F)F)c1)c1cc(Cl)ccc1O` [Compound 1], the “extent of CE during the period of observation” value in series [6] (0.76 mg/kg) is “reduced”. Besides, the “rate of CE development” value in series [6] (0.76 mg/kg IP, fit to single exponential model) stood at 0.032 min⁻¹. Moreover, in series [6] (0.76 mg/kg, versus no drug), the “reduction of rate of CE development” value is 2.5 fold. The “Cerebral Edema Rate by MRI” value in series [6] (n=14 mice) amounted to 0.032 min⁻¹. Moreover, the “improvement of time to 50% survival” value in series [7] is recorded as “roughly 52 min”. Further, in series [7] (n=34), the “improvement of percent survival” value turned out to be 3.2 fold.

`O=C(Nc1cc(C(F)(F)F)cc(C(F)(F)F)c1)c1cc(Cl)ccc1OP(=O)(O)O` [Formula I]: the pH of solution result in series [1] (5 mg/mL in 1% Na2HPO4) is reported as “about 7”; in series [1] (5 mg/mL in 2% Na2HPO4) it was 7.4. In addition, the “stability at RT” value in series [4] (solid sample kept at RT) is reported as “stable at RT for a week or more”.

`O=C(Nc1cc(C(F)(F)F)cc(C(F)(F)F)c1)c1cc(Cl)ccc1OP(=O)(O)O` [mono ethanolamine salt]: in series [4] (after 5 days at RT), the hydrolysis result is reported as “about 10%”.
